# Experimental data as given in US7776873B2, “Method for treating damage to gastric mucosa” (Yuhan Corporation, priority 2005, dated 2010).
# Legend:
# [1] = test system: rat gastric mucosal (RGM-1) cells; experiment: Incidence of ethanol-induced cell death (MTT assay-2); format: cell-based; conditions: 50 uM pretreatment for 16 hours, then 200 mM ethanol for 16 hours, FIG. 2
# Experimental: The rat gastric mucosal (RGM-1, RIKEN cell bank, Japan) cells were seeded onto 96-well plate at 5×10^4 cells/ml and cultured in DMEM-F12 (Gibco BRL, Grand Island, N.Y., U.S.A.), supplemented with 100 units/mL penicillin, 100 ug/mL streptomycin, and 10% FBS (Fetal Bovine Serum). […] To remove DMEM-F12 media, the plate was centrifuged at 24° C., 3000 rpm for 5 minutes and washed three times with PBS (137 mM NaCl, 2.7 mM KCl, 10 mM Na2HPO4, and 2 mM KH2PO4). Then, ethanol-containing media (200 mM ethanol-containing DMEM-F12, supplemented with 100 units/mL penicillin, 100 ug/mL streptomycin, and 10% FBS) was added to the cells, and the cells were cultured at 37° C. for 16 hours. After the incubation, the culture was centrifuged at 24° C., 3000 rpm for 5 minutes to remove the culture medium and then total viable cell numbers were assessed by MTT (3-[4,5-dimethylthiazol-2-yl]-2,5-diphenyl tetrazolim bromide) assay method. 1 mg/ml of an MTT solution prepared by dissolving MTT (Amresco, Ohio, U.S.A.) in PBS (137 mM NaCl, 2.7 mM KCl, 10 mM Na2HPO4, and 2 mM KH2PO4) was added to each well (50 μl/well), followed by incubation at 37° C. for 4 hours. The supernatant was then removed by centrifugation at 24° C., 3000 rpm for 5 minutes and the formazan grains formed by the viable cells were dissolved in 99.5% dimethylsulfoxide (DMSO) (Kanto, Tokyo, Japan) (50 μl/well), and the optical intensity was measured at 540 nm using an ELISA reader (TECAN, Maennedorf, Switzerland).
# [2] = test system: human gastric epithelial (AGS) cells infected with H. pylori (ATCC 43504); experiment: Incidence of H. pylori-induced cell death (MTT assay-1); format: cell-based; conditions: 50 uM pretreatment for 16 hours, then 48-hour H. pylori infection, FIG. 1
# Experimental: In order to determine cytoprotective properties of revaprazan against H. pylori infection, gastric mucosal cells were pretreated with revaprazan and rebamipide prior to H. pylori infection, and the incidence of cell death was measured. Rebamipide, known to have cytoprotective properties, was used as a control drug.
# The human gastric epithelial (AGS, KCLB 21739) cells were seeded onto 96-well plate at 5×10^4 cells/ml and cultured in RPMI 1640 (Gibco BRL, Grand Island, N.Y., U.S.A.), supplemented with 100 units/mL penicillin, 100 ug/mL streptomycin, and 10% FBS (Fetal Bovine Serum). Revaprazan and rebamipide, dissolved in sterilized water, were added to AGS cells to reach a final concentration of 50 uM and the cells were incubated at 37° C. for 16 hours. To remove RPMI 1640 media, the plate was centrifuged at 24° C., 3000 rpm for 5 minutes and washed three times with PBS (137 mM NaCl, 2.7 mM KCl, 10 mM Na2HPO4, and 2 mM KH2PO4). For inoculation, H. pylori (ATCC 43504) cultures were resuspended in PBS and cocultured with AGS cells at a final concentration of 5×10^8 CFU/ml. After 48 hours of incubation at 37° C., the culture was centrifuged at 24° C., 3000 rpm for 5 minutes to remove the culture medium, i.e., RPMI 1640, and then total viable cell numbers were assessed by MTT (3-[4,5-dimethylthiazol-2-yl]-2,5-diphenyl tetrazolim bromide) assay method. 1 mg/ml of an MTT solution prepared by dissolving MTT (Amresco, Ohio, U.S.A.) in PBS (137 mM NaCl, 2.7 mM KCl, 10 mM Na2HPO4, and 2 mM KH2PO4) was added to each well (50 μl/well), followed by incubation at 37° C. for 4 hours. The supernatant was then removed by centrifugation at 24° C., 3000 rpm for 5 minutes and the formazan grains formed by the viable cells were dissolved in 99.5% dimethyl sulfoxide (DMSO) (Kanto, Tokyo, Japan) (50 μl/well), and the optical intensity was measured at 540 nm using an ELISA reader (TECAN, Maennedorf, Switzerland).
# [3] = test system: indomethacin-induced gastric mucosal lesions; experiment: Preventive effect on NSAID-induced gastropathy; format: in vivo, Sprague Dawley male rats; conditions: rats, oro-gastric pretreatment (revaprazan 5, 10 mg/kg; rebamipide 30 mg/kg; omeprazole 5 mg/kg) prior to indomethacin 40 mg/kg for 12 hrs, FIG. 8
# Experimental: Six-week old specific-pathogen-free (SPF) Sprague Dawley male rats (Charles River, Tokyo, Japan) were used for experiments. The rats were fed a sterilized commercial pellet diet (Biogenomics Co., Seoul, Korea), given sterile water ad libitum, and housed in air-conditioned biohazard room with a 12-h light:12-h dark cycle. The rats were food-deprived 24 hours, and then administered with 5, 10 mg/kg revaprazan, 30 mg/kg rebamipide and 5 mg/kg omeprazole suspended in 0.5% CMC (carboxymethylcellulose) via oro-gastric tube prior to exposure to indomethacin (40 mg/kg for 12 hrs). Phosphate-buffered saline was perfused into the gastric lumen of the rats to swell the stomachs. Then, the stomachs were opened by an incision along the greater curvature, and the total area of the gastric mucosal lesions was calculated to obtain the average size of the lesions.
smiles,measurement,setting,value
"O=C(NC(Cc1cc(=O)[nH]c2ccccc12)C(=O)O)c1ccc(Cl)cc1 (stereo not drawn) [rebamipide, reference compound]",ethanol-induced gastric mucosal cytotoxicity,[1],significantly reduced
same,gastric mucosal cytotoxicity by H. pylori infection,[2],significantly reduced
same,hemorrhagic gastric mucosal lesions after pretreatment,[3],hemorrhagic lesions are observed
